What was measured:
ABCB1 (P-GP) = ABCB1 (P-GP) (Homo sapiens, UniProt P08183); details: cited from earlier work
HER2+ MBC patients = assay: Meta-analysis and GWAS across Trial I and Trial II study-treatment arms; type: in vivo, human; details: across the trials or study arms
Excerpt: (GWAS, 1M Genome-Wide SNPs (Illumina human 1M duo)). […] Examined genes were divided into three tiers as follows:
• GWAS SNPs: Bonferroni threshold for significance p=0.05/1M=5×10-8

[1] = test system: HER2+ MBC patients with recurrent brain metastases; assay: Clinical Trial I: pharmacogenetic association of germline SNPs with PFS/OS during lapatinib monotherapy; type: in vivo, human
Excerpt: Candidate genes for this experiment are listed below.
Cox proportional hazards model with Firth method.
(GWAS, 1M Genome-Wide SNPs (Illumina human 1M duo)). […] Examined genes were divided into three tiers as follows: […]

[2] = test system: HER2+ MBC patients with disease progression following trastuzumab; details: Trial II
Procedure: Fifty five single nucleotide polymorphisms (SNPs) with functional consequence in 24 candidate genes were evaluated. The assay platform used to genotype these SNPs was the Illumina Human 1M-Duo BeadChip.
Statistical analysis of genetic associations were evaluated using an additive test. For any significant marker identified from the additive test, specific contrasts of interest between different genotypes will be explored to determine risk genotype(s). Cox proportional hazards model with Firth method. Any covariate significant at p≦0.05 in the multivariate Cox model will be included.
Testing for associations of SNPs with progression free survival (PFS) and overall survival (OS) during lapatinib treatment was performed using Cox proportional hazards methods, with covariate adjustment.
Associations were evaluated using an additive genetic test, using a multivariate Cox proportional hazards model adjusting for significant clinical covariates and race/ethnicity difference. […] The primary endpoints was Progression Free Survival (PFS), where the secondary endpoint was Overall Survival (OS). […] Variants were assigned to tiers for analysis, with different association significance thresholds and these were specified prior to analysis to adjust for number of SNP tests, but not for number of endpoints and groups, as follows: • Candidate genes:

ABCG2 (BCRP) = target: T1, ABCG2 (BCRP) (Homo sapiens, UniProt Q9UNQ0); details: cited from earlier work
T1 sequence (Q9UNQ0 1-655): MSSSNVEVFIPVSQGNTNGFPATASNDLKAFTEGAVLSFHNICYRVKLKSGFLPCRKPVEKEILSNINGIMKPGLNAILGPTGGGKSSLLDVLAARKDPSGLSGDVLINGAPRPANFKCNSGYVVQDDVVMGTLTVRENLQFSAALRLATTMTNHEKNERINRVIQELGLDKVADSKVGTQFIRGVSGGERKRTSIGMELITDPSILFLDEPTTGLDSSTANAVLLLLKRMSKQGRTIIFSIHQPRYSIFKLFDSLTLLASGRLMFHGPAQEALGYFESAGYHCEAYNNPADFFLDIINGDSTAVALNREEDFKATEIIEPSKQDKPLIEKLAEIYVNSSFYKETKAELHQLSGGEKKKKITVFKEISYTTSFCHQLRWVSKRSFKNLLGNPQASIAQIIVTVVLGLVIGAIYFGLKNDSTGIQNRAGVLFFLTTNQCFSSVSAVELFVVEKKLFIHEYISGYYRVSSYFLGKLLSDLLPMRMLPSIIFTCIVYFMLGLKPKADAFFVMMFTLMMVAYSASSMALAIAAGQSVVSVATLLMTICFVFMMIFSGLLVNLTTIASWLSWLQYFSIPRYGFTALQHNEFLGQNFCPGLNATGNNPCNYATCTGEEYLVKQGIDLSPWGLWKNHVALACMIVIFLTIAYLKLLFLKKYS

CYP3A4 = CYP3A4 (Homo sapiens, UniProt P08684); details: cited from earlier work
CYP3A4, sequence (P08684 whole entry): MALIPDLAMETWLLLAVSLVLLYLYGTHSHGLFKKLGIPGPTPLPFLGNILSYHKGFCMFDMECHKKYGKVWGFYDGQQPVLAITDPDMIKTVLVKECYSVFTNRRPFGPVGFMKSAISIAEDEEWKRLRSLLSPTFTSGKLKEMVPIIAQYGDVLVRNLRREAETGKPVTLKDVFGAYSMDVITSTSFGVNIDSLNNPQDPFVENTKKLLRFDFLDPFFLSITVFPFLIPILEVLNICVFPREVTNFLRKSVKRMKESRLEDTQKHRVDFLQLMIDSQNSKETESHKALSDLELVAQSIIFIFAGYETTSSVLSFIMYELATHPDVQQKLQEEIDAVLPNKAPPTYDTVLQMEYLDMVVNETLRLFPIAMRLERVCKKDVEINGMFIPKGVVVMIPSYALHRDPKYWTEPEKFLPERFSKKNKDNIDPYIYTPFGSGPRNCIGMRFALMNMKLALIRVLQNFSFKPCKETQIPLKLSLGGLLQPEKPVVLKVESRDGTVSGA

ABCB1 (P-GP), sequence (P08183 whole entry): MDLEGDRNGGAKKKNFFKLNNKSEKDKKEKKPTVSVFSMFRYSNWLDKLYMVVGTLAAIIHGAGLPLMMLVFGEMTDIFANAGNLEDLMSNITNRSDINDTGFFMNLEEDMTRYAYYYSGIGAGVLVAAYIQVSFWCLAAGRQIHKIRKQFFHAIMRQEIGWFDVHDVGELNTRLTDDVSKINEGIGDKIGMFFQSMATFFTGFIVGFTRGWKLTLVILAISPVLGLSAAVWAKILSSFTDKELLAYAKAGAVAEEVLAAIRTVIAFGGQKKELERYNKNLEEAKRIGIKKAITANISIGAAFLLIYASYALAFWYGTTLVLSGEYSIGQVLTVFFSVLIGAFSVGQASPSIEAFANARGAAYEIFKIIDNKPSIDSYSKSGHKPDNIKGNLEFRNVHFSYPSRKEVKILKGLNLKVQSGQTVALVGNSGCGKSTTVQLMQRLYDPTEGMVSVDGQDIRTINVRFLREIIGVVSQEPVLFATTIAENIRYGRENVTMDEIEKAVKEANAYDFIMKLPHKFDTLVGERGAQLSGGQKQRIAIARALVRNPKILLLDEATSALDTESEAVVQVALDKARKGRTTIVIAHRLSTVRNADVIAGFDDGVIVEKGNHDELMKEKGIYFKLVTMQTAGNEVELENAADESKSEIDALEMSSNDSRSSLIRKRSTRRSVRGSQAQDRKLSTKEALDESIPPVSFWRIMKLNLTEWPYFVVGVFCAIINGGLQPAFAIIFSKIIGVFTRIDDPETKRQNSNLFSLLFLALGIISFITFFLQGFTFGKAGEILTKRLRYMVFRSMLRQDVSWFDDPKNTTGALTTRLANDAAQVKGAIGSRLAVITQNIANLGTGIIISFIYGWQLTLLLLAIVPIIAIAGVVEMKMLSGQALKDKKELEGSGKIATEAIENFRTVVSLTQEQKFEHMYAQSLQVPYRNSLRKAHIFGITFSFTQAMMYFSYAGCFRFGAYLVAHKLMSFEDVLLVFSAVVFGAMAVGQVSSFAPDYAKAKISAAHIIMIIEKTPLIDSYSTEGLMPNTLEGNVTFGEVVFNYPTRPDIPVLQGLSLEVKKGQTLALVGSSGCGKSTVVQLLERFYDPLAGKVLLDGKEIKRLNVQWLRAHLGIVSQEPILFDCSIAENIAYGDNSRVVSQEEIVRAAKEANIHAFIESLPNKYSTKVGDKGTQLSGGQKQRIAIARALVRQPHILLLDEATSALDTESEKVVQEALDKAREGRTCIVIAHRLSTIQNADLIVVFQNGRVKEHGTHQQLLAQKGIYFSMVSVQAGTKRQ

CS(=O)(=O)CCNCc1ccc(-c2ccc3ncnc(Nc4ccc(OCc5cccc(F)c5)c(Cl)c4)c3c2)o1 [lapatinib, N-(3-chloro-4-{[(3-fluorophenyl)methyl]oxy}phenyl)-6-[5-({[2-(methylsulfonyl)ethyl]amino}methyl)-2-furanyl]-4-quinazolinamine]
substrate status (ABCB1 (P-GP)): (P-GP) lapatinib is substrate
GWAS signals (p<5×10-8) with common markers (MAF>5%) (HER2+ MBC patients): no strong signals
association of VEGFR2 rs1870377 18487A>T with OS [1]: not seen
association of SNPs with progression-free survival (PFS) ([1]; 55 SNPs in 24 candidate genes): No SNPs were statistically significantly associated
allelic hazard ratio for overall survival (OS), VEGFA rs3025039 936C>T ([1]; lapatinib monotherapy, improved OS for T allele carriers, range in brackets): 0.21 (0.08-0.52)
association of VEGFA rs3025039 936C>T with OS [2]: not seen
association of SNPs with progression-free survival (PFS) ([2]; 55 SNPs in 24 candidate genes): No SNPs were statistically significantly associated
allelic hazard ratio for OS, VEGFR2 rs1870377 18487A>T Q472H ([2]; T allele carriers showing improved OS, range in brackets): 0.47 (0.3-0.73)
allelic hazard ratio for OS, carriage of either IGFR1 minor allele (rs2037448 or rs7181022) vs wild type ([2]; carriers have poorer OS, range in brackets): 5.0 (2.2-10.0)
substrate status (ABCG2 (BCRP)): (BCRP) lapatinib is substrate
inhibitor status (CYP3A4): inhibitor
substrate status (CYP3A4): substrate

From patent US20150023953A1, “METHOD OF TREATING CANCER” (priority 2012, published 2015)
